Measurements reported in patent publication US9709486B2, “Method of dynamic spectroscopy under physiological conditions” (INOVIEM SCIENTIFIC, priority 2012, dated 2017).

Tests used:
[1] = tested on: rat hypothalamus extracts; assay: Dynamic NIR spectroscopy of rat hypothalamus extracts in presence of bithionol; settings: FIG. 11
Source text: Sample buffer constituted the blank.

[2] = tested on: crude membrane proteins from each patient's PBMC; assay: Dynamic NIR spectroscopy of crude PBMC membrane proteins of IBD patients in absence and presence of infliximab; design: species or system human; settings: infliximab 10e-6M, samples of patients responding to infliximab, 850-1450 nm, FIG. 17
Experimental: All the patients have a treatment: infliximab (Remicad®). infliximab is an anti-TNFalpha. 50 patients (women=16, men=34) with an average age of 43±8 year seeking medical assistance at Erlangen hospital day-care unit are taking part to the study. Patient's whole blood is collected using sodium citrate vacutainer tubes (5-10 ml/patient). Samples are blinded.
Peripheral blood mononuclear cells (PBMCs) are separated and isolated on ficoll gradient from blood samples, and then frozen. Crude PBMC membranes are prepared in physiological conditions without addition of any protease inhibitor or anti-phosphatase or lyses buffer. PBMC samples were subjected to three fast deep freezing (liquid nitrogen, slow thaw at 4° C., cycle. Determination of protein concentration: total protein concentration was determined using BCA assay (BCA Protein Assay Reagent, bicinchoninic acid). […]
One variable is analyzed in presence and in absence of infliximab: Compare Individual Macromolecular Volume (INV), that is defined as the total macromolecular spectral change from −37° C. to 37° C., due to the macromolecular conformational changes in absence and presence of a drug, expressed as change in absorbance as a function of wavelength and temperature. […]
Results are analyzed based on their spectral fingerprints going from −37° C. to 37° C. and compared to identify responders and non-responders patients.

Oc1c(Cl)cc(Cl)cc1Sc1cc(Cl)cc(Cl)c1O [bithionol]
effect on protein assemblies / protein conformation (water molecules spectra in NIR wavelength) ([1]; 1 μM test molecule, extract 10^−6 mg/ml, −37° C. to 37° C.): disturbs the protein assemblies | reversibility of induced conformation changes ([1]; 1 μM, visible in low temperature (most at −37° C.)): reversible as the temperature rises

infliximab
Individual Macromolecular Volume (INV), total macromolecular spectral change from −37° C. to 37° C. [2]: increases unanimously
